Here are results for 14 compounds from US10428044B2, “3-amino-1,5,6,7-tetrahydro-4H-indol-4-ones” (Bayer Pharma Aktiengesellschaft, priority 2014, dated 2019).

SMILES strings stand for the structures.

(recombinant) catalytic domain of human Bub1 (amino acids 704-1085), sequence (O43683 704-1085): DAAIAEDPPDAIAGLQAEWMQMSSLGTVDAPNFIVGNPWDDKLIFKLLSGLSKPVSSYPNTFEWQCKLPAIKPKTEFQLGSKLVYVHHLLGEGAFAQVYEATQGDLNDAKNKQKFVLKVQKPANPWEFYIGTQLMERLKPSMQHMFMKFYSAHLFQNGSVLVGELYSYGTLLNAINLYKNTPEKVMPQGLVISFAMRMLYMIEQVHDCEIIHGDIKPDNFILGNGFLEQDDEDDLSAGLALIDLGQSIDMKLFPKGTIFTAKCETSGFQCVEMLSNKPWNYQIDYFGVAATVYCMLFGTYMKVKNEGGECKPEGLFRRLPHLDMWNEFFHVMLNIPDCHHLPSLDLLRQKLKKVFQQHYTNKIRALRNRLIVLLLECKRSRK

The target of the assay is (recombinant) catalytic domain of human Bub1 (amino acids 704-1085) (Homo sapiens (Human), UniProt O43683). Kind of assay: Bub1 kinase assay (TR-FRET). The following applies: ATP 10 μM final, peptide substrate 1 μM final, 60 min at 22° C., read-out: Biological Assay: Bub1 kinase assay median IC50. Type of assay: biochemical. Put shortly:
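Compounds were serially diluted 1:3.4 from 2 mM DMSO stocks and incubated with the enzyme reaction for 60 min at 22° C. The reaction was stopped with EDTA, and biotinylated peptide phosphorylation was read by TR-FRET using Eu anti-mouse IgG, anti-phosphoserine antibody and streptavidin-XL665. IC50 was fitted by 4-parameter logistic to inhibition normalized to no-inhibitor and no-enzyme controls.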
For orientation: In TR-FRET formats the signal depends on donor and acceptor labels being close together.
Turning to `CC1(C)CC(=O)c2c([nH]c(-c3ccncc3)c2Nc2ccc3cc[nH]c3c2)C1` [Example 68, 3-(1H-indol-6-ylamino)-6,6-dimethyl-2-(pyridin-4-yl)-1,5,6,7-tetrahydro-4H-indol-4-one], the IC50 (commonly the concentration needed to halve the response being measured) was found to be 84.2 nM.
As for `COc1cc(F)ccc1Nc1c(-c2ccncc2)[nH]c2c1C(=O)CC(C)(C)C2` [Example 121, 3-[(4-fluoro-2-methoxyphenyl)amino]-6,6-dimethyl-2-(pyridin-4-yl)-1,5,6,7-tetrahydro-4H-indol-4-one], the IC50 was found to be 323 nM.
For `Cc1ccc(Cl)cc1Nc1c(-c2ccncc2)[nH]c2c1C(=O)CC(C)(C)C2` [Example 93, 3-[(5-chloro-2-methylphenyl)amino]-6,6-dimethyl-2-(pyridin-4-yl)-1,5,6,7-tetrahydro-4H-indol-4-one], the IC50 worked out at 7400 nM.
Turning to `CC1(C)CC(=O)c2c([nH]c(-c3cc[n+](CCCO)cc3)c2Nc2ccccc2)C1` [Example 191, 4-[6,6-dimethyl-4-oxo-3-(phenylamino)-4,5,6,7-tetrahydro-1H-indol-2-yl]-1-(3-hydroxypropyl)pyridinium iodide], the half-inhibitory concentration (IC50) came to 326 nM.
As for `Cc1c(Cl)cccc1Nc1c(-c2ccncc2)[nH]c2c1C(=O)CC(C)(C)C2` [Example 91, 3-[(3-chloro-2-methylphenyl)amino]-6,6-dimethyl-2-(pyridin-4-yl)-1,5,6,7-tetrahydro-4H-indol-4-one], the IC50 was 101 nM.
In the case of `CC1(C)CC(=O)c2c([nH]c(-c3ccncc3)c2Nc2cccc([N+](=O)[O-])c2)C1` [Example 16, 6,6-dimethyl-3-[(3-nitrophenyl)amino]-2-(pyridin-4-yl)-1,5,6,7-tetrahydro-4H-indol-4-one], the IC50 is 27.2 nM.
Consider `CC(=O)Nc1cc(-c2[nH]c3c(c2Nc2ccc(F)c(F)c2)C(=O)CC(C(C)C)C3)ccn1` (centres unmarked) [Example 323, N-{4-[3-[(3,4-difluorophenyl)amino]-4-oxo-6-(propan-2-yl)-4,5,6,7-tetrahydro-1H-indol-2-yl]pyridin-2-yl}acetamide], for which the IC50 turned out to be 21.6 nM.
The result for `CC1CC1C(=O)Nc1cc(-c2[nH]c3c(c2Nc2ccccc2)C(=O)CCC3)ccn1` (centres unmarked) [Example 237, 2-methyl-N-{4-[4-oxo-3-(phenylamino)-4,5,6,7-tetrahydro-1H-indol-2-yl]pyridin-2-yl}cyclopropanecarboxamide] reads 13.2 nM.
In the case of `CC1(C)CC(=O)c2c([nH]c(-c3cc[n+](CC(F)F)cc3)c2Nc2ccccc2)C1` [Example 192, 4-[6,6-dimethyl-4-oxo-3-(phenylamino)-4,5,6,7-tetrahydro-1H-indol-2-yl]-1-(2,2-difluoroethyl)pyridinium trifluoromethanesulfonate], the IC50 is 1280 nM.
As to `O=C1CCCc2[nH]c(-c3ccnc(NCc4ccncc4)c3)c(Nc3ccccc3)c21` [Example 367, 3-(phenylamino)-2-{2-[(pyridin-4-ylmethyl)amino]pyridin-4-yl}-1,5,6,7-tetrahydro-4H-indol-4-one], the IC50 amounted to 291 nM.
Consider `CC1(C)CC(=O)c2c([nH]c(-c3ccnc(CO)c3)c2Nc2ccccc2)C1` [Example 437, 2-[2-(hydroxymethyl)pyridin-4-yl]-6,6-dimethyl-3-(phenylamino)-1,5,6,7-tetrahydro-4H-indol-4-one], for which the IC50 came to 579 nM.
The result for `CCNC(=O)c1cccc(Nc2c(-c3ccncc3)[nH]c3c2C(=O)CC(C)(C)C3)c1` [Example 144, 3-{[6,6-dimethyl-4-oxo-2-(pyridin-4-yl)-4,5,6,7-tetrahydro-1H-indol-3-yl]amino}-N-ethylbenzamide] reads 1720 nM; that for `O=C1CC(CF)Cc2[nH]c(-c3ccncc3)c(Nc3ccccc3)c21` (centres unmarked) [Example 442, 6-(fluoromethyl)-3-(phenylamino)-2-(pyridin-4-yl)-1,5,6,7-tetrahydro-4H-indol-4-one], 6.97 nM; that for `O=C1CCCc2[nH]c(-c3ccnc(NC(=O)C4CC4)c3)c(Nc3ccc(F)c(F)c3)c21` [Example 316, N-(4-{3-[(3,4-difluorophenyl)amino]-4-oxo-4,5,6,7-tetrahydro-1H-indol-2-yl}pyridin-2-yl)cyclopropanecarboxamide], 82.3 nM.
